Experimental findings from patent US20260206761A1, “HETEROARYL-TRIAZOLE COMPOUNDS AS PESTICIDES” (Bayer Aktiengesellschaft, priority 2019, published 2026) are described below.

Assay type in all cases: in vivo
Test [1] has as its system Rhipicephalus microplus larvae (strain Parkhurst, resistant against synthetic pyrethroids). Briefly: Rhipicephalus (Boophilus) microplus in-vitro contact test, larval cattle tick. As to conditions: after 48 hours, read-out: activity (efficacy: larvae dead or moribund); for pest or weed control at 100 g/ha: application rate 1 pg/cm^2 (=100 g/ha); for pest or weed control at 500 g/ha: application rate 5 pg/cm^2 (=500 g/ha). The essentials:
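Larvae (20-50 per tube) exposed to dry compound film on glass tube walls, 5 μg/cm^2 at 900 ppm, applied from acetone. After 48 h at 27° C./85% RH, tubes tapped and negative geotaxis scored; efficacy as percent dead or moribund larvae.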

Test [2] concerns adult cat fleas (Ctenocephalides felis). Briefly: Ctenocephalides felis in-vitro contact test, adult cat flea. Conditions: application rate 5 μg/cm^2 (=500 g/ha), after 48 hours, read-out: activity (efficacy: fleas dead or moribund). The essentials:
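Efficacy, as % of fleas dead or moribund, was read 48 h after 5-10 adult cat fleas were confined in glass tubes whose walls carried dried compound film (900 ppm, […]). Fleas failing to escape upward from a 45-50° C plate within 5 min counted as dead or moribund.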

The subject of test [3] is larvae of the banded cucumber beetle (Diabrotica balteata). In words: Diabrotica balteata spray test. Conditions: 168 h, after 7 days, read-out: activity (efficacy: seedlings grown); for pest or weed control at 100 g/ha: application rate 100 g/ha (=32 pg/well); for pest or weed control at 500 g/ha: application rate 500 g/ha (=160 pg/well). The procedure, abridged:
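Read-out is % efficacy at day 7, 0% meaning no seedling growth and 100% growth equal to uninfested untreated controls. Test solutions (acetone/DMF concentrate diluted with water carrying 1000 ppm emulsifier) were sprayed onto 1-day-germinated wheat seeds, 5 per well, before infestation with 10-20 larvae.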

Test [4] relates to green peach aphid (Myzus persicae). In words: Myzus persicae oral test. As to conditions: 120 h, application rate 4 ppm, after 5 days. The procedure, abridged: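 Five-day oral feeding assay measuring percent mortality of a mixed aphid population that draws compound-containing sugared IPL41 medium through sealing parafilm; the test preparation derives from 1 part compound per 100 parts acetone, diluted with water.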

Test [5] has the same test system. Briefly: Myzus persicae spray test. As to conditions: 120 h, after 5 days; for mortality at 100 g/ha: application rate 100 g/ha; for mortality at 500 g/ha: application rate 500 g/ha. The essentials:
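Chinese cabbage leaf disks carrying all instars of M. persicae sprayed with compound in acetone/DMF, diluted in water with 1000 ppm alkylarylpolyglycol ether emulsifier. Percent mortality scored after 5 days (100% = all aphids killed).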

In test [6] the test system is larvae of the southern green stink bug (Nezara viridula). In words: Nezara viridula spray test. Conditions: 96 h, after 4 days; for mortality at 100 g/ha: application rate 100 g/ha; for mortality at 500 g/ha: application rate 500 g/ha. The procedure, abridged:
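Larva-infested barley (Hordeum vulgare) plants received a spray of test solution prepared from an acetone/DMF concentrate diluted in emulsifier-containing water (1000 ppm). Percent kill read 4 days later; 0% means no stink bugs dead.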

Test [7] concerns Aedes aegypti strain MONHEIM. In words: Aedes aegypti test (AEDSAE surface treatment & contact assay). As to conditions: 24 hours after contact, read-out: efficacy (mortality); for mortality at 4 mg/m2: surface concentration 4 mg/m^2, exposure 30 minutes; for mortality at 20 mg/m2: surface concentration 20 mg/m^2, exposure 30 minutes. The procedure, abridged:
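Percent mortality was read 24 h after adult MONHEIM mosquitoes were held for 30 min on a tile treated with compound. Compound applied from acetone solution (2 mg/ml) containing 2000 ppm rapeseed oil methyl ester, after evaporation.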

Test [8] deals with Musca domestica strain WHO-N. Briefly: Musca domestica test (MUSCDO surface treatment & contact assay). As to conditions: 24 hours after contact, read-out: efficacy (mortality); for mortality at 20 mg/m2: surface concentration 20 mg/m^2, exposure 30 minutes; for mortality at 4 mg/m2: surface concentration 4 mg/m^2, exposure 30 minutes. The essentials:
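Compound dissolved at 2 mg/ml in acetone with 2000 ppm rapeseed oil methyl ester and pipetted onto a glazed tile. After the acetone evaporated, adult WHO-N flies were exposed to the dried surface for 30 min, with % mortality scored 24 h after contact.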

On to `C[C@H](NC(=O)c1cc(Cl)cc(S(=O)(=O)C(F)F)c1)c1ncnn1-c1ncccn1` [II-34], for which, in test [1], the pest or weed control at 100 g/ha was found to be 100% and the pest or weed control at 500 g/ha stood at 90%. The pest or weed control at 5 µg/cm2 in test [2] worked out at 100%. Moreover, in test [3], the pest or weed control at 100 g/ha came out at 100% and the pest or weed control at 500 g/ha amounted to 100%. In addition, the mortality at 4 ppm in test [4] was determined as 100%. In test [5], this compound showed a mortality at 100 g/ha of 100% and a mortality at 500 g/ha of 100%. In test [6], this compound registered a mortality at 100 g/ha of 100% and a mortality at 500 g/ha of 100%. Further, in test [7], the mortality at 4 mg/m2 fell in the range of 80 to 100% and the mortality at 20 mg/m2 was 80 to 100%. Moreover, the mortality at 20 mg/m2 in test [8] lay in the range of 80 to 100%.

In the case of `Cc1nc([C@H](C)NC(=O)c2cc(Cl)cc(S(=O)(=O)C(F)F)c2)n(-c2ccc(C#N)cn2)n1` [II-35], the pest or weed control at 100 g/ha in test [1] and in test [3] was 100% throughout. Further, the pest or weed control at 500 g/ha in test [1] and in test [3] was 100% in each case. Further, the pest or weed control at 5 µg/cm2 in test [2] stood at 100%. In test [4], the mortality at 4 ppm worked out at 100%. The mortality at 100 g/ha in test [5] and in test [6] was 100% throughout. In addition, the mortality at 500 g/ha in test [5] and in test [6] was 100% throughout. Moreover, the mortality at 4 mg/m2 in test [7] and in test [8] was 80 to 100% in each case. The mortality at 20 mg/m2 in test [7] and in test [8] was 80 to 100% throughout.

On to `Cc1nc([C@H](C)NC(=O)c2cc(Cl)cc(S(=O)(=O)C(F)F)c2)n(-c2ccc(Cl)cn2)n1` [II-36], for which, in test [1], the pest or weed control at 100 g/ha turned out to be 100% and the pest or weed control at 500 g/ha amounted to 100%. Moreover, the pest or weed control at 5 µg/cm2 in test [2] turned out to be 100%. For the same compound, in test [3], the pest or weed control at 100 g/ha is 100% and the pest or weed control at 500 g/ha stood at 100%. Further, in test [4], the mortality at 4 ppm amounted to 100%. The mortality at 500 g/ha in test [5] was determined as 90%. In test [6], the mortality at 100 g/ha came out at 100% and the mortality at 500 g/ha is 100%. Also, in test [7], the mortality at 4 mg/m2 lay within 80 to 100% and the mortality at 20 mg/m2 was 80 to 100%. For the same compound, in test [8], the mortality at 4 mg/m2 lay within 80 to 100%.

Take `C[C@H](NC(=O)c1cc(C(F)(F)F)cc(C2(C#N)CC2)c1)c1ncnn1-c1ccc(C#N)cn1` [II-47]: the pest or weed control at 100 g/ha in test [1] and in test [3] was 100% in each case. Moreover, in test [1], the pest or weed control at 500 g/ha came out at 100%. Besides, the pest or weed control at 5 µg/cm2 in test [2] came out at 100%. Also, the mortality at 4 ppm in test [4] came to 100%. For the same compound, the mortality at 100 g/ha in test [5] and in test [6] was 100% each time. In addition, the mortality at 4 mg/m2 in test [7] and in test [8] was 80 to 100% each time. In addition, the mortality at 20 mg/m2 in test [7] and in test [8] was 80 to 100% in each case.

Turning to `C[C@H](NC(=O)c1cc(C(F)(F)F)cc(C2(C#N)CC2)c1)c1ncnn1-c1ccc(Cl)cn1` [II-48], the pest or weed control at 100 g/ha in test [1] and in test [3] was 100% in each case. For the same compound, the pest or weed control at 500 g/ha in test [1] worked out at 100%. The pest or weed control at 5 µg/cm2 in test [2] stood at 90%. In test [4], this compound displayed a mortality at 4 ppm of 100%. For the same compound, the mortality at 100 g/ha in test [5] and in test [6] was 100% in each case. Further, the mortality at 4 mg/m2 in test [7] and in test [8] was 80 to 100% each time. For the same compound, the mortality at 20 mg/m2 in test [7] and in test [8] was 80 to 100% each time.

For `Cc1nc([C@H](C)NC(=O)c2cc(C(F)(F)F)cc(C3(C#N)CC3)c2)n(-c2ccc(C#N)cn2)n1` [II-49], the pest or weed control at 100 g/ha in test [1] and in test [3] was 100% in each case. In addition, in test [1], the pest or weed control at 500 g/ha is 100%. Further, the pest or weed control at 5 µg/cm2 in test [2] was 100%. The mortality at 4 ppm in test [4] is 100%. Besides, the mortality at 100 g/ha in test [5] and in test [6] was 100% throughout. Also, the mortality at 4 mg/m2 in test [7] and in test [8] was 80 to 100% throughout. For the same compound, the mortality at 20 mg/m2 in test [7] and in test [8] was 80 to 100% in each case.

As for `Cc1nc([C@H](C)NC(=O)c2cc(C(F)(F)F)cc(C3(C#N)CC3)c2)n(-c2ccc(Cl)cn2)n1` [II-50], the pest or weed control at 100 g/ha in test [1] and in test [3] was 100% in each case. Also, in test [1], the pest or weed control at 500 g/ha stood at 100%. The pest or weed control at 5 µg/cm2 in test [2] was found to be 100%. Further, in test [4], the mortality at 4 ppm was 100%. The mortality at 100 g/ha in test [5] and in test [6] was 100% in each case. Moreover, in test [7], the mortality at 4 mg/m2 lay within 80 to 100%. Also, the mortality at 20 mg/m2 in test [7] and in test [8] was 80 to 100% in each case.
